From ChEMBL document CHEMBL4130434, “Antineoplastic Agents. 604. The Path of Quinstatin Derivatives to Antibody Drug Conjugates” (2017)
*1 amine or outer side, *2 acyl side, *3 side chain or, on linkers, in order; H or OH if unused. Where a SMILES comes first, the peptide text is derived from it. [ ]: non-standard residue; d: D form. The star is where a group is joined. Dolaproine = CO[C@@H]([C@@H]1CCCN1)[C@@H](C)C(=O)O; Hexanoyl(6-maleimido) = O=C1C=CC(=O)N1CCCCCC(=O)*; Dil = CC[C@H](C)[C@H](NC)[C@@H](CC(=O)O)OC; PABC = O=C(OCc1ccc(N[*:1])cc1)[*:2]; Cit = NC(=O)NCCC[C@H](N)C(=O)O; NMeV = CN[C@H](C(=O)O)C(C)C; X1 = c1cnc2c(CCN*)cccc2c1; X2 = c1cc(CCN*)c2cccnc2c1; X3 = c1ccc2c(CCN*)ccnc2c1; X4 = c1ccc2nc(CCN*)ccc2c1

How the values were obtained:
Assay type in all cases: functional
BXPC-3 = assay: Growth inhibition of human BxPC3 cells after 48 hrs by SRB assay; conditions: BXPC-3, 48 h
MCF7 = assay: Growth inhibition of human MCF7 cells after 48 hrs by SRB assay; conditions: MCF7, 48 h
SF-268 = assay: Growth inhibition of human SF268 cells after 48 hrs by SRB assay; conditions: SF-268, 48 h
NCI-H460 = assay: Growth inhibition of human NCI-H460 cells after 48 hrs by SRB assay; conditions: NCI-H460, 48 h
DU-145 = assay: Growth inhibition of human DU145 cells after 48 hrs by SRB assay; conditions: DU-145, 48 h
KM-20L2 = assay: Growth inhibition of human KM20L2 cells after 48 hrs by SRB assay; conditions: KM-20L2, 48 h

SMILES	GI50 (BXPC-3) [nM]	GI50 (MCF7) [nM]	GI50 (NCI-H460) [nM]	GI50 (DU-145) [nM]	GI50 (SF-268) [nM]	GI50 (KM-20L2) [nM]
CC[C@H](C)[C@@H]([C@@H](CC(=O)N1CCC[C@H]1[C@H](OC)[C@@H](C)C(=O)NCCc1cccc2ncccc12)OC)N(C)C(=O)[C@@H](NC(=O)[C@@H](NC)C(C)C)C(C)C (H-[NMeV]V[Dil][Dolaproine]-X2)	27.1	0.298	37.9	0.812	0.311	0.582
CC[C@H](C)[C@@H]([C@@H](CC(=O)N1CCC[C@H]1[C@H](OC)[C@@H](C)C(=O)NCCc1ccnc2ccccc12)OC)N(C)C(=O)[C@@H](NC(=O)[C@@H](NC)C(C)C)C(C)C (H-[NMeV]V[Dil][Dolaproine]-X3)	67.7	0.149	67.7	0.135	0.176	0.596
CC[C@H](C)[C@@H]([C@@H](CC(=O)N1CCC[C@H]1[C@H](OC)[C@@H](C)C(=O)NCCc1ccc2ccccc2n1)OC)N(C)C(=O)[C@@H](NC(=O)[C@@H](NC)C(C)C)C(C)C (H-[NMeV]V[Dil][Dolaproine]-X4)	81.2	4.06	392	12.2	1.22	3.24
CC[C@H](C)[C@@H]([C@@H](CC(=O)N1CCC[C@H]1[C@H](OC)[C@@H](C)C(=O)N[C@@H](Cc1ccccc1)c1nccs1)OC)N(C)C(=O)[C@@H](NC(=O)[C@H](C(C)C)N(C)C)C(C)C [DOLASTATIN-10]	0.051	0.005	0.229	0.007	0.006	0.01

Now from value to compound, other results behind:

GI50 (BXPC-3) [nM]	GI50 (MCF7) [nM]	GI50 (NCI-H460) [nM]	GI50 (DU-145) [nM]	SMILES	GI50 (SF-268) [nM]	GI50 (KM-20L2) [nM]
11.5	0.06	14.9	0.07	CC[C@H](C)[C@@H]([C@@H](CC(=O)N1CCC[C@H]1[C@H](OC)[C@@H](C)C(=O)NCCc1cccc2cccnc12)OC)N(C)C(=O)[C@@H](NC(=O)[C@@H](NC)C(C)C)C(C)C (H-[NMeV]V[Dil][Dolaproine]-X1)	0.06	0.203
449	15	449	5.98	CC[C@H](C)[C@@H]([C@@H](CC(=O)N1CCC[C@H]1[C@H](OC)[C@@H](C)C(=O)NCCc1cccc2cccnc12)OC)N(C)C(=O)[C@@H](NC(=O)[C@H](C(C)C)N(C)C(=O)OCc1ccc(NC(=O)[C@H](CCCNC(N)=O)NC(=O)[C@@H](NC(=O)CCCCCN2C(=O)C=CC2=O)C(C)C)cc1)C(C)C ({Hexanoyl(6-maleimido)}-V[Cit][PABC][NMeV]V[Dil][Dolaproine]-X1)	3.52	23.9
299	5.23	247	4.49	CC[C@H](C)[C@@H]([C@@H](CC(=O)N1CCC[C@H]1[C@H](OC)[C@@H](C)C(=O)NCCc1cccc2ncccc12)OC)N(C)C(=O)[C@@H](NC(=O)[C@H](C(C)C)N(C)C(=O)OCc1ccc(NC(=O)[C@H](CCCNC(N)=O)NC(=O)[C@@H](NC(=O)CCCCCN2C(=O)C=CC2=O)C(C)C)cc1)C(C)C ({Hexanoyl(6-maleimido)}-V[Cit][PABC][NMeV]V[Dil][Dolaproine]-X2)	2.99	11.2
1570	30.7	2620	31.4	CC[C@H](C)[C@@H]([C@@H](CC(=O)N1CCC[C@H]1[C@H](OC)[C@@H](C)C(=O)NCCc1ccnc2ccccc12)OC)N(C)C(=O)[C@@H](NC(=O)[C@H](C(C)C)N(C)C(=O)OCc1ccc(NC(=O)[C@H](CCCNC(N)=O)NC(=O)[C@@H](NC(=O)CCCCCN2C(=O)C=CC2=O)C(C)C)cc1)C(C)C ({Hexanoyl(6-maleimido)}-V[Cit][PABC][NMeV]V[Dil][Dolaproine]-X3)	29.9	38.9
